From patent publication US20230416228A1 (Forkhead Biotherapeutics, Inc., priority 2020, published 2023)
pIC50: −log10 of the molar value.

target: T1, human FOXO1 (constitutively active form Thr24Ala, Ser256Ala, Ser319Ala) (Homo sapiens, UniProt Q12778, S256A/S319A/T24A); experiment: FOXO1 inhibitor activity assay: cell-based transcriptional (luciferase) reporter assay in HEK293 cells; details: HEK293 cells transfected with insulin response element firefly luciferase reporter, FOXO1 and Renilla luciferase; 10-point dose response 50 μM to 2.5 nM; 24 hours
T1 construct: expressed in transfected cells; host or cells: HEK293 cells transfected with pcDNA3.1 plasmid
T1 sequence (Q12778 whole entry T24A/S256A/S319A): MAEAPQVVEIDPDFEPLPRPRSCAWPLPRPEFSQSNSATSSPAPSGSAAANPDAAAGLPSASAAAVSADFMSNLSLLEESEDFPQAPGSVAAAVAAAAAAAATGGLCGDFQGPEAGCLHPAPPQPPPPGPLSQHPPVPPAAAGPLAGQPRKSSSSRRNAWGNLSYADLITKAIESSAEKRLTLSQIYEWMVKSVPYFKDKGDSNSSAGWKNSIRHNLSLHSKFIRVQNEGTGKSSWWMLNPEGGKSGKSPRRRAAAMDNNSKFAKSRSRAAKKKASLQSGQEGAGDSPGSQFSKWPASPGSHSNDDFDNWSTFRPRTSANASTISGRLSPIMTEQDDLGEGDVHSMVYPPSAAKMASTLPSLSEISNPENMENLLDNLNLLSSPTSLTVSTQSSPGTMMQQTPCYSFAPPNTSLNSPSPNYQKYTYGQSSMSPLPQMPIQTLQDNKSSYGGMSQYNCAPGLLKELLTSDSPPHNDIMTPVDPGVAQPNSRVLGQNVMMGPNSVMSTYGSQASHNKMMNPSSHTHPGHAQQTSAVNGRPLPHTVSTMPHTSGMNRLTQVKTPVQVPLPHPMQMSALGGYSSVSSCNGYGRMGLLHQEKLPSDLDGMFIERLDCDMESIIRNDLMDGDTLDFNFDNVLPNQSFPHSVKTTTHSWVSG
Experimental: The inhibitory activities of compounds on FOXO1 were determined by a cell-based transcriptional reporter assay. HEK293 cells were plated onto either 384-well poly-D-lysine coated plates (at 7500 cells per well) or 96-well plates (at 20000 cells per well) in low glucose Eagle's Minimum Essential Medium (EMEM) containing 1% fetal bovine serum, and incubated overnight at 37° C. and 5% CO2. […] Duplicate wells were included for each treatment condition. Cells were incubated for 24 hours at 37° C. and 5% CO2. Luciferase activities in each well were measured using Dual-Glog Luciferase Assay System (Promega) according to manufacturer's protocol and an Envision plate reader suitable for luminescence detection. Firefly luciferase activity was divided by Renilla luciferase activity to calculate a ratio for each well. The ratio in wells containing cells transfected with all 3 plasmids listed above and receiving only DMSO without compound addition was set to 100%. The ratio in wells containing cells transfected with plasmid (1), plasmid (3), and pcDNA3.1 containing the open reading frame of red fluorescent protein (instead of human FOXO1) and treated with DMSO was set to 0%. The ratio in each well receiving compound treatment was normalized and expressed as a percentage. Data were fit by 4-parameter logistic regression to determine IC50 and maximal inhibition values. Each compound was tested in a minimum of 2 independent experiments.

pIC50	SMILES
> 7.00	CC1CN(c2ccc(C(=O)Nc3cc(-c4nc5ccccc5[nH]4)n(C)n3)cn2)CC(CO)O1 (single isomer, unassigned) [Compound A-292, N-[5-(1H-benzimidazol-2-yl)-1-methyl-pyrazol-3-yl]-6-[2-(hydroxymethyl)-6-methyl-morpholin-4-yl]pyridine-3-carboxamide]
6.52 to 7.00	CC1CN(c2ccc(C(=O)Nc3cc(-c4nc5ccccc5[nH]4)n(C)n3)cn2)CC(CO)O1 (single isomer, unassigned) [Compound A-293, N-[5-(1H-benzimidazol-2-yl)-1-methyl-pyrazol-3-yl]-6-[2-(hydroxymethyl)-6-methyl-morpholin-4-yl]pyridine-3-carboxamide]
> 7.00	CC1CN(c2ccc(C(=O)Nc3cc(-c4nc5ccccc5[nH]4)n(C)n3)cn2)CC(CO)O1 (single isomer, unassigned) [Compound A-294, N-[5-(1H-benzimidazol-2-yl)-1-methyl-pyrazol-3-yl]-6-[2-(hydroxymethyl)-6-methyl-morpholin-4-yl]pyridine-3-carboxamide]
> 7.00	CC1CN(c2ccc(C(=O)Nc3cc(-c4nc5ccccc5[nH]4)n(C)n3)cn2)CC(CO)O1 (single isomer, unassigned) [Compound A-295, N-[5-(1H-benzimidazol-2-yl)-1-methyl-pyrazol-3-yl]-6-[2-(hydroxymethyl)-6-methyl-morpholin-4-yl]pyridine-3-carboxamide]
6.00 to 6.52	Cn1nc(NC(=O)c2ccc(N3CCC(O)C3)nc2)cc1-c1nc2ccccc2[nH]1 (stereo in doubt) [Compound A-227, N-[5-(1H-benzimidazol-2-yl)-1-methyl-pyrazol-3-yl]-6-[(3R)-3-hydroxy-pyrrolidin-1-yl]pyridine-3-carboxamide]
> 7.00	CC(=O)N1CCN(c2ccc(C(=O)Nc3cc(-c4nc5ccccc5[nH]4)n(C)n3)cn2)CC1 [A-231, 6-(4-acetylpiperazin-1-yl)-N-[5-(1H-benzimidazol-2-yl)-1-methyl-pyrazol-3-yl]pyridine-3-carboxamide]
> 7.00	CC(O)CN1CCN(c2ccc(C(=O)Nc3cc(-c4nc5ccccc5[nH]4)n(C)n3)cc2)CC1 (stereo not shown) [A-257, N-[5-(1H-benzimidazol-2-yl)-1-methyl-pyrazol-3-yl]-4-[4-(2-hydroxypropyl)piperazin-1-yl]benzamide]
< 6.00	COc1ccc(C(=O)Nc2cc(C(=O)NC3COC3)[nH]n2)cc1Cl [Compound A-16, 3-[(3-chloro-4-methoxy-benzoyl)amino]-N-(oxetan-3-yl)-1H-pyrazole-5-carboxamide]
> 7.00	CN1CCN(c2ccc(C(=O)Nc3cc(-c4nc5ccccc5[nH]4)[nH]n3)cn2)CC1 [Compound A-21, N-[5-(1H-benzimidazol-2-yl)-1H-pyrazol-3-yl]-6-(4-methyl-piperazin-1-yl)pyridine-3-carboxamide]
> 7.00	COCCOc1ccc(C(=O)Nc2cc(-c3nc4ccccc4[nH]3)[nH]n2)cc1Cl [Compound A-29, N-[5-(1H-benzimidazol-2-yl)-1H-pyrazol-3-yl]-3-chloro-4-(2-methoxyethoxy)benzamide]
< 6.00	COc1ccc(C(=O)Nc2cc(-c3nc4ccccc4[nH]3)no2)cc1Cl [Compound A-30, N-[3-(1H-benzimidazol-2-yl)isoxazol-5-yl]-3-chloro-4-methoxy-benzamide]
6.52 to 7.00	O=C(Nc1cc(-c2nc3ccccc3[nH]2)[nH]n1)c1ccc(OCCN2CCOCC2)c(Cl)c1 [Compound A-33, N-[5-(1H-benzimidazol-2-yl)-1H-pyrazol-3-yl]-3-chloro-4-(2-morpholinoethoxy)benzamide]
> 7.00	O=C(Nc1cc(-c2nc3ccccc3[nH]2)[nH]n1)c1ccc(N2CCC(O)CC2)cc1 [Compound A-36, N-[5-(1H-benzimidazol-2-yl)-1H-pyrazol-3-yl]-4-(4-hydroxy-1-piperidyl)-benzamide]
> 7.00	COCCNc1ccc(C(=O)Nc2cc(-c3nc4ccccc4[nH]3)[nH]n2)cc1Cl [Compound A-39, N-[5-(1H-benzimidazol-2-yl)-1H-pyrazol-3-yl]-3-chloro-4-(2-methoxyethylamino)benzamide]
> 7.00	O=C(Nc1cc(-c2nc3ccccc3[nH]2)[nH]n1)c1ccc(N2CC[C@@H](O)C2)cc1 [Compound A-40, N-[5-(1H-benzimidazol-2-yl)-1H-pyrazol-3-yl]-4-[(3R)-3-hydroxypyrrolidin-1-yl]benzamide]
> 7.00	O=C(Nc1cc(-c2nc3ccccc3[nH]2)[nH]n1)c1ccc(N2CCOCC2)nc1 [Compound A-41, N-[5-(1H-benzimidazol-2-yl)-1H-pyrazol-3-yl]-6-morpholino-pyridine-3-carboxamide]

pIC50	SMILES
6.52 to 7.00	O=C(Nc1cc(-c2nc3ccccc3[nH]2)[nH]n1)c1ccc(N2CCC(O)CC2)nc1 [Compound A-42, N-[5-(1H-benzimidazol-2-yl)-1H-pyrazol-3-yl]-6-(4-hydroxy-1-piperidyl)pyridine-3-carboxamide]
> 7.00	O=C(Nc1cc(-c2nc3ccccc3[nH]2)[nH]n1)c1ccc(N2CC[C@H](O)C2)cc1 [Compound A-43, N-[5-(1H-benzimidazol-2-yl)-1H-pyrazol-3-yl]-4-[(3S)-3-hydroxy-pyrrolidin-1-yl]benzamide]
> 7.00	O=C(Nc1cc(-c2nc3ccccc3[nH]2)[nH]n1)c1ccc(N2CCC3(CCCO3)CC2)nc1 [Compound A-44, N-[5-(1H-benzimidazol-2-yl)-1H-pyrazol-3-yl]-6-(1-oxa-8-azaspiro[4.5]decan-8-yl)pyridine-3-carboxamide]
< 6.00	O=C(Nc1cc(-c2nc3ccccc3[nH]2)[nH]n1)c1ccc(N2CC3(COC3)C2)nc1 [Compound A-45, N-[5-(1H-benzimidazol-2-yl)-1H-pyrazol-3-yl]-6-(2-oxa-6-azaspiro[3.3]heptan-6-yl)pyridine-3-carboxamide]
> 7.00	CN(C)C1CCN(c2ccc(C(=O)Nc3cc(-c4nc5ccccc5[nH]4)[nH]n3)cn2)CC1 [Compound A-46, N-[5-(1H-benzimidazol-2-yl)-1H-pyrazol-3-yl]-6-[4-(dimethylamino)-1-piperidyl]pyridine-3-carboxamide]
> 7.00	CC(C)(O)C1CCN(c2ccc(C(=O)Nc3cc(-c4nc5ccccc5[nH]4)[nH]n3)cn2)CC1 [Compound A-47, N-[5-(1H-benzimidazol-2-yl)-1H-pyrazol-3-yl]-6-[4-(1-hydroxy-1-methyl-ethyl)-1-piperidyl]pyridine-3-carboxamide]
< 6.00	O=C(Nc1cc(-c2nc3ccccc3[nH]2)[nH]n1)c1ccc(N2CCC[C@H]2C(=O)O)nc1 [Compound A-48, (2S)-1-[5-[[5-(1H-benzimidazol-2-yl)-1H-pyrazol-3-yl]carbamoyl]-2-pyridyl]pyrrolidine-2-carboxylic acid]
6.00 to 6.52	O=C(Nc1cc(-c2nc3ccccc3[nH]2)[nH]n1)c1ccc(N2CCS(=O)(=O)CC2)nc1 [Compound A-49, N-[5-(1H-benzimidazol-2-yl)-1H-pyrazol-3-yl]-6-(1,1-dioxo-1,4-thiazinan-4-yl)pyridine-3-carboxamide]
> 7.00	O=C(Nc1cc(-c2nc3ccccc3[nH]2)[nH]n1)c1ccc(OCCO)c(Cl)c1 [Compound A-50, N-[5-(1H-benzimidazol-2-yl)-1H-pyrazol-3-yl]-3-chloro-4-(2-hydroxy-ethoxy)benzamide]
< 6.00	O=C(Nc1cc(-c2nc3ccccc3[nH]2)[nH]n1)c1ccc(N2CCC(C(=O)O)CC2)nc1 [Compound A-51, ammonium 1-[5-[[5-(1H-benzimidazol-2-yl)-1H-pyrazol-3-yl]carbamoyl]-2-pyridyl]piperidine-4-carboxylate]
6.52 to 7.00	O=C(Nc1cc(-c2nc3ccccc3[nH]2)[nH]n1)c1ccc(N2CCC[C@H]2CO)nc1 [Compound A-52, N-[5-(1H-benzimidazol-2-yl)-1H-pyrazol-3-yl]-6-[(2S)-2-(hydroxymethyl)-pyrrolidin-1-yl]pyridine-3-carboxamide]
> 7.00	COCCCOc1ccc(C(=O)Nc2cc(-c3nc4ccccc4[nH]3)[nH]n2)cc1Cl [Compound A-53, N-[5-(1H-benzimidazol-2-yl)-1H-pyrazol-3-yl]-3-chloro-4-(3-methoxy-propoxy)benzamide]
6.00 to 6.52	O=C(Nc1cc(-c2nc3ccccc3[nH]2)[nH]n1)c1ccc(N2CC[C@H](O)C2)nc1 [Compound A-54, N-[5-(1H-benzimidazol-2-yl)-1H-pyrazol-3-yl]-6-[(3S)-3-hydroxy-pyrrolidin-1-yl]pyridine-3-carboxamide]
6.00 to 6.52	O=C(Nc1cc(-c2nc3ccccc3[nH]2)[nH]n1)c1ccc(N2CC[C@@H](O)C2)nc1 [Compound A-55, N-[5-(1H-benzimidazol-2-yl)-1H-pyrazol-3-yl]-6-[(3R)-3-hydroxypyrrolidin-1-yl]pyridine-3-carboxamide]
< 6.00	CCOC(=O)[C@@H]1CCCN1c1ccc(C(=O)Nc2cc(-c3nc4ccccc4[nH]3)[nH]n2)cn1 [Compound A-56, ethyl (2S)-1-[5-[[5-(1H-benzimidazol-2-yl)-1H-pyrazol-3-yl]carbamoyl]-2-pyridyl]pyrrolidine-2-carboxylate]
